Measured values reported in patent US7205382B2, “Peptides, the production and use thereof for binding immunoglobulins” (Fresenius Medical Care Affina GmbH, priority 2000, dated 2007).
Bridge positions count the residues as written; N and C are the ends. Square brackets hold non-standard residues; d marks the D form. Ends that are not written are not given here. cellulose = not defined here; βAla = NCCC(=O)O

What was measured:
Format in all cases: binding
Parameters in all cases: key: No binding of immunoglobulin for the defined peptide variant, detection negative: 0; Binding of immunoglobulin for the defined peptide variant, detection positive: +
serum albumin = assay: Cellulose-immobilized 13-mer peptide variants incubated with serum albumin (negative control), anti-human IgG-AP detection; details: blocking buffer without addition, 3 h room temperature
Experimental: (§1) Peptides consisting of 13 amino acids were synthesized by solid phase synthesis (Houghten, 1985) on a cellulose matrix with (βA)(βA) as a spacer group.
(§2) The immobilized peptides were tested for their immunoglobulin binding capability by incubation with human IgG-Fc in a buffered solution and by incubation with human plasma.
(§3) Thus, the peptide variants immobilized on solid phases were washed with T-TBS buffer (136 mM NaCl, 1.6 mM KCl, 0.05% (v/v) Tween 20, 50 mM Tris-HCl, pH 8.0) and subsequently treated with blocking buffers (5% (w/v) saccharose, 4% (w/v) bovine serum albumin in T-TBS). Incubation of the immobilized peptides with IgG-Fc (1 μg/ml) in blocking buffer and human serum (diluted 1:10,000 in blocking buffer) was effected for 3 h at room temperature. For checking the specificity of the binding, buffered serum albumin solution (blocking buffer) without addition was included as a control. Thereafter, the peptide variants immobilized on the solid phases were washed three more times with T-TBS buffer.
(§4) After incubation with alkaline phosphatase-conjugated anti-human IgG antibody (1.2 μg/ml) in blocking buffer, detection of the immunoglobulin binding was effected by means of NBT (nitroblue tetrazolium chloride)/BCIP (5-bromo-4-chloro-3-indolyl phosphate toluidine salt) as a substrate (200 μl of parent solution (18.75 mg/ml NBT and 9.4 mg/ml BCIP in 67% (v/v) DMSO) in 10 ml developing buffer (100 mM Tris-HCl, 100 mM NaCl, 5 mM MgCl2, pH 9.5)).

[1] = test system: immunoglobulins in human plasma; assay: Cellulose-immobilized 13-mer peptide variants incubated with human plasma, anti-human IgG-AP detection; details: human plasma as sample, diluted 1:10,000 in blocking buffer, 3 h room temperature
Experimental: as §1, §2, §3, §4

human IgG-Fc = assay: Cellulose-immobilized 13-mer peptide variants incubated with human IgG-Fc, anti-human IgG-AP detection; details: IgG-Fc 1 μg/ml in blocking buffer, 3 h room temperature
Experimental: as §1, §2, §3, §4

Result for incubation with serum albumin (immunoglobulin binding detection) (serum albumin)	Result for incubation with human plasma (immunoglobulin binding detection) [1]	Result for incubation with human IgG-Fc (immunoglobulin binding detection) (human IgG-Fc)	Substance
0	0	0	10A: cellulose-bound 13-mer variant DCAWHLGELAWCT-(βA)(βA) (DCAWHLGELAWCT-{βAla-βAla-cellulose}; disulfide 2-12 (inferred); reading uncertain; also: printed as DCAWHLGELAWCT-(βA)(βA))
0	0	+	11K: cellulose-bound 13-mer variant DCAWHLGELVKCT-(βA)(βA)
0	0	0	05V: cellulose-bound 13-mer variant DCAWVLGELVWCT-(βA)(βA) (disulfide 2-12 (inferred); not fully specified (N-terminus, C-terminus); printed as DCAWVLGELVWCT-(βA)(βA); also: cellulose-bound)
0	0	0	11L: cellulose-bound 13-mer variant DCAWHLGELVLCT-(βA)(βA)
0	0	0	11R: cellulose-bound 13-mer variant DCAWHLGELVRCT-(βA)(βA)
0	0	+	09P: cellulose-bound 13-mer variant DCAWHLGEPVWCT-(βA)(βA) (DCAWHLGEPVWCT-{βAla-βAla-cellulose}; disulfide 2-12 (inferred); reading uncertain; also: printed as DCAWHLGEPVWCT-(βA)(βA))
0	0	0	06C: cellulose-bound 13-mer variant DCAWHCGELVWCT-(βA)(βA) (DCAWHCGELVWCT[βAla][βAla]; not fully specified (N-terminus); printed as DCAWHCGELVWCT-(βA)(βA); cysteine pairing not given here; also: cellulose-bound)
0	0	0	05D: cellulose-bound 13-mer variant DCAWDLGELVWCT-(βA)(βA) (disulfide 2-12 (inferred); not fully specified (N-terminus, C-terminus); printed as DCAWDLGELVWCT-(βA)(βA); also: cellulose-bound)
0	0	+	06T: cellulose-bound 13-mer variant DCAWHTGELVWCT-(βA)(βA) (DCAWHTGELVWCT-{βAla-βAla-cellulose}; disulfide 2-12 (inferred); not fully specified (N-terminus); printed as DCAWHTGELVWCT-(βA)(βA); reading uncertain)
0	0	0	07E: cellulose-bound 13-mer variant DCAWHLEELVWCT-(βA)(βA) (DCAWHLEELVWCT-{βAla-βAla-cellulose}; disulfide 2-12 (inferred); not fully specified (N-terminus); printed as DCAWHLEELVWCT-(βA)(βA); reading uncertain)
0	+	+	04R: cellulose-bound 13-mer variant DCARHLGELVWCT-(βA)(βA) (disulfide 2-12 (inferred); not fully specified (N-terminus, C-terminus); printed as DCARHLGELVWCT-(βA)(βA); also: cellulose-bound)
0	0	0	10N: cellulose-bound 13-mer variant DCAWHLGELNWCT-(βA)(βA) (DCAWHLGELNWCT-{βAla-βAla-cellulose}; disulfide 2-12 (inferred); reading uncertain; also: printed as DCAWHLGELNWCT-(βA)(βA))
0	0	0	03I: cellulose-bound 13-mer variant DCIWHLGELVWCT-(βA)(βA) (DCIWHLGELVWCT-{βAla-βAla-cellulose}; disulfide 2-12 (inferred); reading uncertain; also: printed as DCIWHLGELVWCT-(βA)(βA))
0	0	0	01I: cellulose-bound 13-mer variant ICAWHLGELVWCT-(βA)(βA) (ICAWHLGELVWCT-{βAla-βAla-cellulose}; disulfide 2-12 (inferred); reading uncertain; also: printed as ICAWHLGELVWCT-(βA)(βA))
0	0	+	04N: cellulose-bound 13-mer variant DCANHLGELVWCT-(βA)(βA) (DCANHLGELVWCT[βAla][βAla]; disulfide 2-12 (inferred); also: cellulose-bound)
0	0	0	05N: cellulose-bound 13-mer variant DCAWNLGELVWCT-(βA)(βA) (disulfide 2-12 (inferred); not fully specified (N-terminus, C-terminus); printed as DCAWNLGELVWCT-(βA)(βA); also: cellulose-bound)
0	+	+	09K: cellulose-bound 13-mer variant DCAWHLGEKVWCT-(βA)(βA) (DCAWHLGEKVWCT-{βAla-βAla-cellulose}; disulfide 2-12 (inferred); reading uncertain; also: printed as DCAWHLGEKVWCT-(βA)(βA))
0	+	+	04E: cellulose-bound 13-mer variant DCAEHLGELVWCT-(βA)(βA) (DCAEHLGELVWCT[βAla][βAla]; disulfide 2-12 (inferred); also: cellulose-bound)
0	0	0	03W: cellulose-bound 13-mer variant DCWWHLGELVWCT-(βA)(βA) (DCWWHLGELVWCT-{βAla-βAla-cellulose}; disulfide 2-12 (inferred); reading uncertain; also: printed as DCWWHLGELVWCT-(βA)(βA))
0	0	0	10F: cellulose-bound 13-mer variant DCAWHLGELFWCT-(βA)(βA) (DCAWHLGELFWCT-{βAla-βAla-cellulose}; disulfide 2-12 (inferred); reading uncertain; also: printed as DCAWHLGELFWCT-(βA)(βA))
0	0	0	02S: cellulose-bound 13-mer variant DSAWHLGELVWCT-(βA)(βA) (DSAWHLGELVWCT[βAla][βAla]; not fully specified; printed as DSAWHLGELVWCT-(βA)(βA); also: cellulose-bound)
